Experimental data as given in patent publication US12102086B2, “Antimicrobial peptide Spampcin56-86 from Scylla paramamosain and applications thereof” (XIAMEN UNIVERSITY, priority 2021, dated 2024).
Residues, ends and D or L forms follow the SMILES beside them.

How the values were obtained:
[1] = system: L. monocytogenes; experiment: MIC and MBC determination; assay type: cell-based, Listeria Monocytogenes; settings: CGMC NO. 1.10753, Gram-positive
[2] = system: E. faecalis; experiment: MIC and MBC determination; assay type: cell-based, Enterococcus Faecalis; settings: CGMC NO. 1.2135, Gram-positive
[3] = system: E. faecium; experiment: MIC and MBC determination; assay type: cell-based, Enterococcus Faecium; settings: CGMC NO. 1.131, Gram-positive
[4] = system: P. fluorescens; experiment: MIC and MBC determination; assay type: cell-based, Pseudomonas fluorescens; settings: CGMC NO. 1.3202, Gram-negative
[5] = system: S. aureus
[6] = system: S. epidermidis; settings: CGMC NO. 1.4260, Gram-positive
[7] = system: S. aureus QZ19132
[8] = system: P. aeruginosa; settings: CGMC NO. 1.2421, Gram-negative
[9] = system: A. baumannii; settings: CGMC NO. 1.6769, Gram-negative
[10] = system: A. sobria; settings: Gram-negative
[11] = system: A. hydrophila; settings: CGMC NO. 1.2017, Gram-negative
[12] = system: E. coli
[13] = system: E. tarda; settings: Gram-negative
[14] = system: A. baumannii QZ20142; settings: A. baumannii QZ20142, drug-resistant clinical isolate
[15] = system: A. baumannii QZ20143
[16] = system: F. oxysporum; settings: CGMC NO. 3.6785, fungi
[17] = system: F. solani; settings: CGMC NO. 3.5840, fungi

In the case of `CC(C)C[C@H](NC(=O)CNC(=O)[C@H](Cc1c[nH]cn1)NC(=O)[C@H](C)NC(=O)[C@H](C)NC(=O)[C@H](CCCNC(=N)N)NC(=O)[C@@H](N)CCCNC(=N)N)C(=O)N[C@@H](CC(C)C)C(=O)N1CCC[C@H]1C(=O)N[C@@H](CCCNC(=N)N)C(=O)N[C@@H](CC(C)C)C(=O)N[C@@H](CCCNC(=N)N)C(=O)N[C@@H](C)C(=O)N1CCC[C@H]1C(=O)N1CCC[C@H]1C(=O)N1CCC[C@H]1C(=O)N[C@@H](Cc1ccccc1)C(=O)N[C@@H](Cc1c[nH]cn1)C(=O)N[C@@H](CCCCN)C(=O)N[C@@H](CCCNC(=N)N)C(=O)N[C@@H](CS)C(=O)N[C@H](C(=O)N[C@@H](CS)C(=O)N[C@@H](CC(C)C)C(=O)N[C@@H](CS)C(=O)N[C@@H](CCCNC(=N)N)C(=O)N[C@H](C(=O)N[C@@H](C)C(=O)N1CCC[C@H]1C(=O)N1CCC[C@H]1C(=O)N1CCC[C@H]1C(=O)O)[C@@H](C)O)C(C)C` [Spampcin56-86] (H-RRAAHGLLPRLRAPPPFHKRCVCLCRTAPPP-OH; N-terminus and C-terminus assumed), the MBC [1] was 1.5-3^ μM, the MIC [1] was 1.5-3^ μM and the MBC [2] was 1.5-3^ μM. The MIC [2] was 1.5-3^ μM, the MBC [3] was 1.5-3^ μM and the MIC [3] was 0 to 1.5 µM. For the same compound, the MBC [4] was 1.5-3^ μM, the MIC [4] was 1.5-3^ μM and the MBC [5] was 3 to 6 µM. It also gave an MBC [6] of 3 to 6 µM, an MIC [6] of 3 to 6 µM and an MBC [7] of 12 to 24 µM. For the same compound, the MBC [8] was 3 to 6 µM, the MIC [8] was 1.5-3^ μM and the MBC [9] was 3 to 6 µM. It also gave an MIC [9] of 3 to 6 µM, an MBC [10] of 3 to 6 µM and an MIC [10] of 3 to 6 µM. For the same compound, the MBC [11] was 6 to 12 µM, the MIC [11] was 6 to 12 µM and the MBC [12] was 3 to 6 µM. It also gave an MIC [12] of 3 to 6 µM, an MBC [13] of 24 to 48 µM and an MIC [13] of 3 to 6 µM. The MBC [14] was 3 to 6 µM, the MIC [14] was 3 to 6 µM and the MIC [15] was 3 to 6 µM. For the same compound, the MBC [16] was 3 to 6 µM, the MIC [16] was 3 to 6 µM and the MBC [17] was 3 to 6 µM. For the same compound, the MIC [17] was 1.5-3^ μM.
